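In this assay, cells in 96-well plates receive the compound at five concentrations for 48 hours. Endpoints are linearly interpolated between the surrounding concentrations. GI50 marks 50% less growth. TGI: total growth inhibition.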
Key:
Experiment in all cases: NCI-60 cell line screen, 48 h
RXF 393 renal = system: RXF 393 renal
SK-OV-3 ovarian = system: SK-OV-3 ovarian
SNB-19 CNS = system: SNB-19 CNS
786-0 renal = system: 786-0 renal
EKVX NSCLC = system: EKVX NSCLC
HCT-15 colon = system: HCT-15 colon
SK-MEL-28 melanoma = system: SK-MEL-28 melanoma
SK-MEL-2 melanoma = system: SK-MEL-2 melanoma
NCI-H226 lung = system: NCI-H226 lung
SF-539 CNS = system: SF-539 CNS
HS 578T breast = system: HS 578T breast
K-562 leukemia = system: K-562 leukemia
HOP-92 NSCLC = system: HOP-92 NSCLC
T-47D breast = system: T-47D breast
A498 renal = system: A498 renal
IGROV1 ovarian = system: IGROV1 ovarian
CAKI-1 renal = system: CAKI-1 renal
SW-620 colon = system: SW-620 colon
M14 melanoma = system: M14 melanoma
SF-268 CNS = system: SF-268 CNS
HOP-62 NSCLC = system: HOP-62 NSCLC
PC-3 prostate = system: PC-3 prostate
ACHN renal = system: ACHN renal
MCF7 breast = system: MCF7 breast
RPMI-8226 leukemia = system: RPMI-8226 leukemia
HL-60(TB) leukemia = system: HL-60(TB) leukemia
HCC-2998 colon = system: HCC-2998 colon
COLO 205 colon = system: COLO 205 colon
UACC-257 melanoma = system: UACC-257 melanoma
NCI/ADR-RES ovarian = system: NCI/ADR-RES ovarian
OVCAR-5 ovarian = system: OVCAR-5 ovarian
SK-MEL-5 melanoma = system: SK-MEL-5 melanoma
MDA-MB-231 breast = system: MDA-MB-231 breast
U251 CNS = system: U251 CNS
UACC-62 melanoma = system: UACC-62 melanoma
SN12C renal = system: SN12C renal
HT29 colon = system: HT29 colon
OVCAR-8 ovarian = system: OVCAR-8 ovarian
LOX IMVI melanoma = system: LOX IMVI melanoma
DU-145 prostate = system: DU-145 prostate
MDA-MB-435 = system: MDA-MB-435
HCT-116 colon = system: HCT-116 colon
OVCAR-3 ovarian = system: OVCAR-3 ovarian
SR leukemia = system: SR leukemia
CCRF-CEM leukemia = system: CCRF-CEM leukemia
NCI-H23 lung = system: NCI-H23 lung
OVCAR-4 ovarian = system: OVCAR-4 ovarian
NCI-H522 lung = system: NCI-H522 lung
SNB-75 CNS = system: SNB-75 CNS
KM12 colon = system: KM12 colon
NCI-H460 lung = system: NCI-H460 lung
SF-295 CNS = system: SF-295 CNS
UO-31 renal = system: UO-31 renal
MOLT-4 leukemia = system: MOLT-4 leukemia
A549 NSCLC = system: A549 NSCLC
TK-10 renal = system: TK-10 renal
BT-549 breast = system: BT-549 breast

With `O=C(NC1CCCCC1)NS(=O)(=O)c1ccc(-n2nc3c(c2-c2cccs2)Cc2ccccc2-3)cc1` the GI50 (RXF 393 renal) was 29.2 µM, the TGI (RXF 393 renal) was 84.1 µM and the GI50 (SK-OV-3 ovarian) was 44.5 µM. For the same compound, the TGI (SK-OV-3 ovarian) was over 100 µM, the GI50 (SNB-19 CNS) was 56.8 µM and the TGI (SNB-19 CNS) was over 100 µM. It also gave a GI50 (786-0 renal) of 32.3 µM, a TGI (786-0 renal) of over 100 µM and a GI50 (EKVX NSCLC) of 28.6 µM. For the same compound, the TGI (EKVX NSCLC) was 65.4 µM, the GI50 (HCT-15 colon) was 17.8 µM and the TGI (HCT-15 colon) was 41 µM. For the same compound, the GI50 (SK-MEL-28 melanoma) was 34.2 µM, the TGI (SK-MEL-28 melanoma) was over 100 µM and the GI50 (SK-MEL-2 melanoma) was 23.6 µM. The TGI (SK-MEL-2 melanoma) was 64.7 µM, the GI50 (NCI-H226 lung) was 21.3 µM and the TGI (NCI-H226 lung) was 64.9 µM. It also gave a GI50 (SF-539 CNS) of 27.6 µM, a TGI (SF-539 CNS) of 61.8 µM and a GI50 (HS 578T breast) of 37.5 µM. It also gave a TGI (HS 578T breast) of over 100 µM, a GI50 (K-562 leukemia) of 10 µM and a TGI (K-562 leukemia) of 35 µM. For the same compound, the GI50 (HOP-92 NSCLC) was 14.3 µM, the TGI (HOP-92 NSCLC) was 29.6 µM and the GI50 (T-47D breast) was 39.7 µM. For the same compound, the TGI (T-47D breast) was over 100 µM, the GI50 (A498 renal) was 57.2 µM and the TGI (A498 renal) was over 100 µM. It also gave a GI50 (IGROV1 ovarian) of 4.12 µM, a TGI (IGROV1 ovarian) of 23 µM and a GI50 (CAKI-1 renal) of 16 µM. The TGI (CAKI-1 renal) was 44.4 µM, the GI50 (SW-620 colon) was 20.7 µM and the TGI (SW-620 colon) was over 100 µM. It also gave a GI50 (M14 melanoma) of 64.1 µM, a TGI (M14 melanoma) of over 100 µM and a GI50 (SF-268 CNS) of over 100 µM. The TGI (SF-268 CNS) was over 100 µM, the GI50 (HOP-62 NSCLC) was over 100 µM and the TGI (HOP-62 NSCLC) was over 100 µM. The GI50 (PC-3 prostate) was 14.5 µM, the TGI (PC-3 prostate) was 31.7 µM and the GI50 (ACHN renal) was 17.3 µM. The TGI (ACHN renal) was 33.6 µM, the GI50 (MCF7 breast) was over 100 µM and the TGI (MCF7 breast) was over 100 µM. For the same compound, the GI50 (RPMI-8226 leukemia) was 10.7 µM, the TGI (RPMI-8226 leukemia) was 30.6 µM and the GI50 (HL-60(TB) leukemia) was 25 µM. It also gave a TGI (HL-60(TB) leukemia) of 48.8 µM, a GI50 (HCC-2998 colon) of 6.63 µM and a TGI (HCC-2998 colon) of 24.1 µM. For the same compound, the GI50 (COLO 205 colon) was 23.3 µM, the TGI (COLO 205 colon) was 51.1 µM and the GI50 (UACC-257 melanoma) was 24.8 µM. It also gave a TGI (UACC-257 melanoma) of 72.7 µM, a GI50 (NCI/ADR-RES ovarian) of 20.4 µM and a TGI (NCI/ADR-RES ovarian) of 65.4 µM. The GI50 (OVCAR-5 ovarian) was 26.6 µM, the TGI (OVCAR-5 ovarian) was 68.6 µM and the GI50 (SK-MEL-5 melanoma) was 18.7 µM. The TGI (SK-MEL-5 melanoma) was 43 µM, the GI50 (MDA-MB-231 breast) was 27.9 µM and the TGI (MDA-MB-231 breast) was over 100 µM. The GI50 (U251 CNS) was 25.6 µM, the TGI (U251 CNS) was over 100 µM and the GI50 (UACC-62 melanoma) was 19.3 µM. The TGI (UACC-62 melanoma) was 53 µM, the GI50 (SN12C renal) was 21.5 µM and the TGI (SN12C renal) was 47.7 µM. The GI50 (HT29 colon) was 34.3 µM, the TGI (HT29 colon) was over 100 µM and the GI50 (OVCAR-8 ovarian) was 25.3 µM. For the same compound, the TGI (OVCAR-8 ovarian) was 90.5 µM, the GI50 (LOX IMVI melanoma) was 5.66 µM and the TGI (LOX IMVI melanoma) was 33.5 µM. It also gave a GI50 (DU-145 prostate) of 31.9 µM, a TGI (DU-145 prostate) of over 100 µM and a GI50 (MDA-MB-435) of 32.5 µM. It also gave a TGI (MDA-MB-435) of over 100 µM, a GI50 (HCT-116 colon) of 31.7 µM and a TGI (HCT-116 colon) of over 100 µM. For the same compound, the GI50 (OVCAR-3 ovarian) was 24.5 µM, the TGI (OVCAR-3 ovarian) was over 100 µM and the GI50 (SR leukemia) was 1.57 µM. For the same compound, the TGI (SR leukemia) was 4.01 µM, the GI50 (CCRF-CEM leukemia) was 1.15 µM and the TGI (CCRF-CEM leukemia) was 3.79 µM. It also gave a GI50 (NCI-H23 lung) of 12.8 µM, a TGI (NCI-H23 lung) of 33.8 µM and a GI50 (OVCAR-4 ovarian) of 27 µM. It also gave a TGI (OVCAR-4 ovarian) of over 100 µM, a GI50 (NCI-H522 lung) of 12.3 µM and a TGI (NCI-H522 lung) of 40.3 µM. For the same compound, the GI50 (SNB-75 CNS) was 52.5 µM, the TGI (SNB-75 CNS) was over 100 µM and the GI50 (KM12 colon) was 34.9 µM. The TGI (KM12 colon) was over 100 µM, the GI50 (NCI-H460 lung) was 93 µM and the TGI (NCI-H460 lung) was over 100 µM. It also gave a GI50 (SF-295 CNS) of 34.9 µM, a TGI (SF-295 CNS) of over 100 µM and a GI50 (UO-31 renal) of 15.4 µM. For the same compound, the TGI (UO-31 renal) was 39.9 µM, the GI50 (MOLT-4 leukemia) was 4.99 µM and the TGI (MOLT-4 leukemia) was 37.8 µM. For the same compound, the GI50 (A549 NSCLC) was 28 µM, the TGI (A549 NSCLC) was over 100 µM and the GI50 (TK-10 renal) was 17.5 µM. It also gave a TGI (TK-10 renal) of 34.9 µM, a GI50 (BT-549 breast) of 33.7 µM and a TGI (BT-549 breast) of 94.1 µM.
